Converted amounts (≈) assume the structure as drawn.
Legend:
[1] = system: HaCaT cells; assay: MTT cell viability assay, HaCaT; assay type: cell-based; conditions: Homo sapiens, 24 h
Description: (§1) The murine Swiss albino fibroblast (3T3), the immortal human keratinocyte (HaCaT), the squamous cell carcinoma (A431), the human epithelial carcinoma (HeLa) and the human breast adenocarcinoma (MCF-7) cell lines were sourced from Celltec UB (Barcelona, Spain). All cells were maintained and grown in DMEM medium (4.5 g/L glucose) supplemented with 10% (v/v) FBS, 2 mM L-glutamine, 100 U/mL penicillin and 100 μg/mL streptomycin at 37 °C, 5% CO2. Cells were routinely cultured in 75 cm^2 culture flasks and were trypsinized using trypsin-EDTA when the cells reached approximately 80%. Cell concentration in the resulting suspension was assessed using the trypan blue assay, which enables direct discrimination between viable (unstained) and non-viable (blue) cells.
(§2) T3 and HaCaT cells (1 × 10^5 cells/mL), along with A431, HeLa, and MCF-7 cells (5 × 10^4 cells/mL), were cultured at defined seeding densities in the 60 central wells of a 96-well plate. Cells were first incubated for 24 h under standard incubator conditions (5% CO2, 37 °C). After this period, the culture medium was removed, and the cells were incubated for an additional 24 h with their corresponding compound solutions (1 mg/mL) previously diluted in a minimum amount of DMF (dimethylformamide) and then in DMEM medium supplemented with 5% FBS (100 µL) at the required concentration range (20 to 250 µg/mL). Cell viability following exposure to the lactam derivatives was evaluated using two complementary assays: NRU and MTT.
(§3) Only living cells can reduce the yellow tetrazolium salt 3-(4,5-dimethyl-2-thiazolyl)-2,5-diphenyltetrazolium bromide (MTT) to insoluble purple formazan crystals. After a 24 h incubation of the cells with their corresponding NPs, the medium was removed and 100 µL of MTT (Sigma-Aldrich, St. Louis, MO, USA) in PBS (5 mg/mL) diluted 1:10 in culture medium without phenol red and without FBS (Lonza, Verviers, Belgium) was added to the cells. After 3 h of incubation, the medium was removed. Thereafter, 100 µL of DMSO (Sigma-Aldrich, St. Louis, MO, USA) was added to each well to dissolve the purple formazan crystals. Agitation and absorbance measurements of the extracted solution were carried out under the same conditions described for the NRU assay. The effect of each treatment was then expressed as the percentage of tetrazolium salt reduction by viable cells relative to untreated controls.
(§4) The half-maximal inhibitory concentration (IC50) values for the different formulations, across cell lines and experimental endpoints, were obtained by fitting the concentration-dependent viability curves. […] These findings reflect the very low cytotoxicity of the compounds toward these cell lines.

[2] = system: HaCaT cells; assay: NRU cell viability assay, HaCaT; assay type: cell-based; conditions: Homo sapiens, 24 h
Description: as §1, §2
(§5) The neutral red uptake (NRU) assay is based on the accumulation of dye in the lysosomes of viable cells. After the cells were incubated for 24 h with the corresponding systems, the medium was removed, and the solutions were incubated with the NR dye (Sigma-Aldrich, St. Louis, MO, USA) solution (50 µg/mL) dissolved in the medium, without FBS and without phenol red (Lonza, Verviers, Belgium), for 3 h. Cells were then washed with sterile PBS, followed by the addition of 100 µL of a solution containing 50% absolute ethanol and 1% acetic acid in distilled water to extract the dye. To promote the total dissolution of the dye, plates were placed in a microtiter-plate shaker for 5 min at room temperature. The absorbance of the resulting solutions was measured at 550 nm (Bio-Rad 550 microplate reader, Bio-Rad California, Hercules, CA, USA). Finally, the effect of each treatment was calculated as the percentage of dye uptake by viable cells relative to the control cells (cells without any treatment). […]

[3] = system: 3T3, HaCaT, A431, HeLa and MCF-7 cells; assay: Cell viability assays (MTT and NRU), summary across the cell panel; assay type: cell-based; conditions: for IC50: MTT and NRU, summary statement over cell lines
Description: as §1, §2
(§6) The neutral red uptake (NRU) assay is based on the accumulation of dye in the lysosomes of viable cells. After the cells were incubated for 24 h with the corresponding systems, the medium was removed, and the solutions were incubated with the NR dye (Sigma-Aldrich, St. Louis, MO, USA) solution (50 µg/mL) dissolved in the medium, without FBS and without phenol red (Lonza, Verviers, Belgium), for 3 h. […] The absorbance of the resulting solutions was measured at 550 nm (Bio-Rad 550 microplate reader, Bio-Rad California, Hercules, CA, USA). Finally, the effect of each treatment was calculated as the percentage of dye uptake by viable cells relative to the control cells (cells without any treatment). […]
(§7) Only living cells can reduce the yellow tetrazolium salt 3-(4,5-dimethyl-2-thiazolyl)-2,5-diphenyltetrazolium bromide (MTT) to insoluble purple formazan crystals. […] Agitation and absorbance measurements of the extracted solution were carried out under the same conditions described for the NRU assay. The effect of each treatment was then expressed as the percentage of tetrazolium salt reduction by viable cells relative to untreated controls. […]

[4] = system: A431 cells; assay: MTT cell viability assay, A431; assay type: cell-based; conditions: Homo sapiens, A-431, 24 h
Description: as §1, §2, §3, §4

[5] = Hemolysis assay; assay type: cell-based; conditions: human, human erythrocyte suspension, pH 7.4, 10 and 80 µg/mL
Description: Human blood samples were obtained from the Banc de Sang i Teixits de Barcelona (Barcelona, Spain) under the Catalan Department of Health. Blood was collected in tubes containing the anticoagulant EDTA-K3. Samples were centrifuged at 3000 rpm and 4 °C for 10 min (Megafuge 2.0 R, Heraeus Instruments, Hanau, Germany) to promote sedimentation, after which plasma was carefully eliminated using a Pasteur pipette. The remaining pellet was washed with PBS (pH 7.4) three times to remove residual leukocytes and platelets while concentrating erythrocytes. After the final wash, the erythrocyte pellet was resuspended in PBS (pH 7.4) at a 1:1 ratio to achieve a final erythrocyte concentration of 8 × 10^9 cells/mL.
The hemolysis assay is used to evaluate the ability of the tested compounds to disrupt erythrocyte membranes. Stock solutions of each compound were prepared in PBS (pH 7.4) at a concentration of 1 mg/mL. Volumes ranging from 10 to 80 μL were transferred into polystyrene tubes, followed by the addition of 25 µL of the erythrocyte suspension, bringing the total volume to 1 mL. The samples were incubated at room temperature under gentle rotation and subsequently centrifuged at 10,000 rpm for 5 min. The absorbance of the resulting supernatants at 540 nm (Shimadzu UV-160A, Shimadzu, Duisburg, Germany) was measured and compared with that of the positive control (erythrocytes hemolyzed with distilled water) and the negative control (erythrocytes suspension in PBS, pH 7.4).
The degree of hemolysis was determined using the following equation:Hemolysis (%) = 100 × (Abs − Abs0)/(Abs100 − Abs0) where Abs, Abs0 and Abs100 are the absorbance of the test samples, of the suspension treated with isotonic phosphate–buffered saline (PBS) and of the suspension of complete hemolysis treated with distilled water, respectively.

[6] = system: HeLa cells; assay: MTT cell viability assay, HeLa; assay type: cell-based; conditions: Homo sapiens, 24 h
Description: as §1, §2, §3, §4

[7] = system: 3T3 cells; assay: MTT cell viability assay, 3T3; assay type: cell-based; conditions: Mus musculus, NIH3T3; 3T3, MTT, 24 h
Description: as §1, §2, §3, §4

[8] = system: MCF-7 cells; assay: MTT cell viability assay, MCF-7; assay type: cell-based; conditions: Homo sapiens, MCF7; MCF-7, MTT, 24 h
Description: as §1, §2, §3, §4

[9] = system: 3T3 cells; assay: NRU cell viability assay, 3T3; assay type: cell-based; conditions: Mus musculus, NIH3T3; 3T3, NRU, 24 h
Description: as §1, §2, §5

[10] = system: A431 cells; assay: NRU cell viability assay, A431; assay type: cell-based, human; conditions: Homo sapiens, A-431, 24 h
Description: as §1, §2
(§8) The neutral red uptake (NRU) assay is based on the accumulation of dye in the lysosomes of viable cells. After the cells were incubated for 24 h with the corresponding systems, the medium was removed, and the solutions were incubated with the NR dye (Sigma-Aldrich, St. Louis, MO, USA) solution (50 µg/mL) dissolved in the medium, without FBS and without phenol red (Lonza, Verviers, Belgium), for 3 h. Cells were then washed with sterile PBS, followed by the addition of 100 µL of a solution containing 50% absolute ethanol and 1% acetic acid in distilled water to extract the dye. To promote the total dissolution of the dye, plates were placed in a microtiter-plate shaker for 5 min at room temperature. The absorbance of the resulting solutions was measured at 550 nm (Bio-Rad 550 microplate reader, Bio-Rad California, Hercules, CA, USA). Finally, the effect of each treatment was calculated as the percentage of dye uptake by viable cells relative to the control cells (cells without any treatment). Finally, the effect of each treatment was calculated as the percentage of dye retained by viable cells compared with untreated control cells.
as §4

[11] = system: MCF-7 cells; assay: NRU cell viability assay, MCF-7; assay type: cell-based, human; conditions: Homo sapiens, MCF7; MCF-7, NRU, 24 h
Description: as §1, §2, §8, §4

[12] = system: HeLa cells; assay: NRU cell viability assay, HeLa; assay type: cell-based, human; conditions: Homo sapiens, 24 h
Description: as §1, §2, §8, §4

[13] = system: different cell lines; set-up: method as in PMID 38731527; conditions: across different cell lines, racemic form; cited from earlier work
[14] = system: zebrafish; set-up: method as in PMID 40283925; conditions: tested previously in zebrafish; cited from earlier work
[15] = system: 3T3 fibroblasts; set-up: method as in PMID 40283925; conditions: normal 3T3 fibroblasts, racemic form; cited from earlier work
[16] = system: A431 tumor cells; set-up: method as in PMID 40283925; conditions: racemic form; cited from earlier work
[17] = Cell viability assays (MTT and NRU), summary across the cell panel; assay type: cell-based; conditions: MTT, most cell lines, highest tested concentration
Description: as §1, §2, §6, §7

SMILES	IC50 [1] [µg/mL]	IC50 [2] [µg/mL]	IC50 [3] [µg/mL]	IC50 [4] [µg/mL]	hemolysis [5] [%]	IC50 [6] [µg/mL]	IC50 [7] [µg/mL]	IC50 [8] [µg/mL]	IC50 [9] [µg/mL]	IC50 [10] [µg/mL]	IC50 [11] [µg/mL]	IC50 [12] [µg/mL]	IC50 [13] [µg/mL]	LC50 [14] [µg/mL]	IC50 [15] [µg/mL]	IC50 [16] [µg/mL]	cell survival ([3]; NRU, several lines, 250 µg/mL)	viability at 24 h, 250 µg/mL [17] [%]
C[C@H](c1ccccc1)N1C[C@@H](C)C(Cl)(Cl)C1=O [epi-4]	> 250	> 250	> 100	177 (≈ 651 µM)	< 2	> 250	145 (≈ 534 µM)	> 250	153 (≈ 563 µM)	61.7 (≈ 227 µM)	> 250	> 250	–	–	–	–	–	–
CC(C)(C)N1CC(CCl)C(Cl)(Cl)C1=O (stereo not drawn) [compound 2]	–	–	–	–	–	–	–	–	–	–	–	–	100 to 250	–	–	–	–	–
CC(C)(C)N1C(=O)C(Cl)(Cl)C1c1ccccc1 (stereo not drawn) [β-lactam 1]	–	–	–	–	–	–	–	–	–	–	–	–	–	14.9 (≈ 54.7 µM)	> 210	35 to 71	–	–
C[C@@H](c1ccccc1)N1C[C@H](C)C(Cl)(Cl)C1=O [epi-3]	> 250	> 250	> 68	170 (≈ 624 µM)	< 2	> 250	68.1 (≈ 250 µM)	> 250	77.2 (≈ 284 µM)	123 (≈ 452 µM)	> 250	214 (≈ 786 µM)	–	–	–	–	around 60%	≥ 80

From PMC12736018, “Stereoselective Cytotoxicity of Enantiopure 3,3-Dichloro-γ-lactams: Correlating In Vitro Activity with In Vivo Tolerability” (Molecules, 2025)
